Measured values: the supplement of paper PMC10307832

Assays:
Experiment in all cases: relative viability (nuclei count vs DMSO), 5 days (fraction); higher = more cells survive
[1] = compound: C=CCc1cccc(/C=N/NC(=O)CN2CCN(Cc3ccccc3)CC2)c1O [PAC-1] + CS(=O)(=O)CCNCc1ccc(-c2ccc3ncnc(Nc4ccc(OCc5cccc(F)c5)c(Cl)c4)c3c2)o1 [Lapatinib] (partner 2 µM)
In short: (§1)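 Dosing by pin tool came one day after lung cancer cell lines were seeded in 1536-well plates, using either one drug or a fixed anchor-drug dose plus five library-drug doses (not always all listed) in √10 steps. After 5 days, nuclei were counted on 4× images. Relative viability is treated-well nuclei count divided by vehicle-well nuclei count, and values are medians of duplicate plates.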

[2] = compound: C=CCc1cccc(/C=N/NC(=O)CN2CCN(Cc3ccccc3)CC2)c1O [PAC-1] + CC(C)C[C@H](NC(=O)[C@H](Cc1ccccc1)NC(=O)c1cnccn1)B(O)O [Bortezomib] (partner 0.002 µM)
In short: as §1

[3] = compound: C=CC(=O)Nc1cc(-n2c(=O)ccc3cnc4ccc(-c5ccc(NS(C)(=O)=O)cc5)cc4c32)ccc1C [BMX-IN-1] + Nc1nc2[nH]cc(CCc3ccc(C(=O)N[C@@H](CCC(=O)O)C(=O)O)cc3)c2c(=O)[nH]1 [Pemetrexed] (partner 0.2 µM)
In short: as §1

[4] = compound: C=CCc1cccc(/C=N/NC(=O)CN2CCN(Cc3ccccc3)CC2)c1O [PAC-1] + Cc1cc(Nc2cc(N3CCN(C)CC3)nc(Sc3ccc(NC(=O)C4CC4)cc3)n2)n[nH]1 [Tozasertib] (partner 0.1 µM)
In short: as §1

[5] = compound: C=CCc1cccc(/C=N/NC(=O)CN2CCN(Cc3ccccc3)CC2)c1O [PAC-1] + COc1cc2c(Oc3ccc(NC(=O)C4(C(=O)Nc5ccc(F)cc5)CC4)cc3F)ccnc2cc1OCCCN1CCOCC1 [Foretinib] (partner 0.25 µM)
In short: as §1

Row | Cell Line | relative viability ([1]; first compound 0.02 µM) | relative viability ([1]; first compound 0.06325 µM) | relative viability ([1]; first compound 0.2 µM) | relative viability ([1]; first compound 2 µM) | relative viability ([2]; first compound 0.02 µM) | relative viability ([2]; first compound 0.06325 µM) | relative viability ([2]; first compound 0.2 µM) | relative viability ([2]; first compound 2 µM) | relative viability ([3]; first compound 0.02 µM) | relative viability ([3]; first compound 0.2 µM) | relative viability ([3]; first compound 0.6325 µM) | relative viability ([3]; first compound 2 µM) | relative viability ([4]; first compound 0.02 µM) | relative viability ([4]; first compound 0.06325 µM) | relative viability ([4]; first compound 0.2 µM) | relative viability ([4]; first compound 2 µM) | relative viability ([5]; first compound 0.02 µM) | relative viability ([5]; first compound 0.06325 µM) | relative viability ([5]; first compound 0.2 µM) | relative viability ([5]; first compound 2 µM)
1 | NCI-H2347 | 0.947 | 0.885 | 0.859 | 0.892 | 1.07 | 0.912 | 1.08 | 0.875 | 0.412 | 0.298 | 0.417 | 0.397 | 0.534 | 0.572 | 0.576 | 0.511 | 0.786 | 0.771 | 0.601 | 1.3
2 | NCI-H520 | 0.733 | 0.976 | 0.637 | 0.779 | 0.716 | 0.624 | 0.607 | 0.421 | 0.762 | 0.853 | 0.686 | 0.762 | 0.461 | 0.468 | 0.407 | 0.393 | 0.818 | 0.769 | 0.682 | 0.723
3 | COR-L23 | 1.06 | 0.963 | 0.833 | 0.928 | 1.1 | 0.93 | 0.913 | 0.966 | 0.188 | 0.204 | 0.206 | 0.165 | 0.203 | 0.304 | 0.192 | 0.214 | 1.01 | 1.02 | 0.902 | 0.951
4 | NCI-H2405 | 1.03 | 1.17 | 1.14 | 1.24 | 0.981 | 1.02 | 0.959 | 0.977 | 1.13 | 1.19 | 1.09 | 0.94 | 0.688 | 0.737 | 0.74 | 0.786 | 1.04 | 1.04 | 1.02 | 1.1
5 | A-427 | 1.06 | 1.03 | 1.08 | 0.71 | 1.05 | 1.01 | 0.963 | 0.958 | 1.01 | 1.05 | 1.11 | 0.992 | 0.176 | 0.209 | 0.231 | 0.2 | 1.12 | 0.946 | 1.09 | 1.08
6 | SK-LU-1 | 0.601 | 0.942 | 0.67 | 0.867 | 0.8 | 1.3 | 1.21 | 1.22 | 1.13 | 1.27 | 0.962 | 0.95 | 0.314 | 0.332 | 0.341 | 0.294 | 0.834 | 0.797 | 0.78 | 0.78
7 | RERF-LC-KJ | 0.857 | 0.817 | 0.864 | 0.87 | 1.15 | 1.16 | 1.08 | 1.17 | 0.468 | 0.448 | 0.48 | 0.456 | 0.467 | 0.483 | 0.45 | 0.511 | 0.961 | 0.854 | 0.845 | 0.904
8 | LXF-289 | 0.901 | 0.903 | 0.897 | 0.927 | 0.983 | 1.01 | 1.01 | 0.995 | 0.896 | 0.947 | 1.01 | 0.985 | 0.148 | 0.234 | 0.197 | 0.165 | 0.907 | 1.02 | 1 | 0.934
9 | LC-2-ad | 0.983 | 0.957 | 0.984 | 0.865 | 0.981 | 0.971 | 0.999 | 0.957 | 0.265 | 0.28 | 0.277 | 0.281 | 0.456 | 0.48 | 0.357 | 0.449 | 0.968 | 0.875 | 0.887 | 0.954
10 | NCI-H23 | 1.13 | 1.17 | 0.868 | 1.34 | 0.956 | 1.01 | 0.866 | 0.995 | 0.693 | 1.04 | 0.797 | 0.622 | 0.323 | 0.384 | 0.366 | 0.383 | 1.08 | 0.954 | 0.844 | 0.965
